For experiment [1], the system named is Bovine cardiac myofibrils. In words: In vitro model of dose-dependent myofibril ATPase modulation (AC1.4, pyruvate kinase/lactate dehydrogenase-coupled ATPase assay at pCa25). Type of experiment: biochemical. Conditions: concentration at which ATPase activity was 1.4-fold higher than the bottom of the dose curve, mean of a minimum of two independent tests. The gist of the method:
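Compound dilutions were premixed with myofibrils, coupling enzymes, EGTA and CaCl2, then the reaction was started with an equal volume carrying ATP (final 1 mM), NADH and PEP. ATP turnover was followed at 340 nm, and dose responses were fit to a four-parameter equation.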

Experiment [2] concerns Male CD rats. In words: Echocardiography/ultrasound protocol: fractional shortening (% FS) during intravenous infusion, MEE. Type of experiment: in vivo. More on the design: unit not given here. The note with it: rat, formulation 40% HPbCD, corrected for rat plasma protein binding. The method, then: (§1) Formulations: A compound as disclosed herein and water were admixed together. Either 30% wt/vol or 40% wt/vol of hydroxypropyl beta-cyclodextrin (HPBCD) was added and the mixture stirred until dissolved.
(§2) Echocardiography/ultrasound protocol: Serial echocardiography was conducted with the aid of an imaging system suitable for rodent cardiac ultrasound. Male CD rats (6-10 weeks of age; 6-12 animals per group) were cannulated with a jugular vein catheter to enable delivery of test article by intravenous infusion. […] An imaging probe was fixed in position to acquire short axis (SAX), motion (M)—mode images of the left cardiac ventricle at the level of the papillary muscles. Baseline data was acquired prior to initiating test article delivery. Test article (compound as disclosed herein in a HPBCD formulation), or vehicle control, was delivered with the aid of an infusion pump connected to the jugular vein catheter. Infusion rate of test article was increased at 15 min intervals, to a maximum of 5 mL/kg/hr. Ultrasound images were acquired at 5 min intervals. Additionally whole blood (not exceeding 10 uL) was collected via a tail nick at the same 5 min intervals for subsequent exposure determination.
(§3) Whole blood samples were analyzed by protein precipitation and liquid chromatography tandem mass spectrometry (LC-MS/MS) using multiple reaction monitoring (MRM) in positive ionization mode. The lower limit of quantitation (LLOQ) in the assay was 1 ng/mL and the upper limit of quantitation (ULOQ) was 10,000 ng/mL.
Offline data analysis of the SAX M-mode ultrasound images was conducted to derive measures of left ventricular end diastolic diameter (LVEDD), left ventricular end systolic diameter (LVESD) and subsequent calculation of fractional shortening (% FS) using the following formula: % FS=((LVEDD−LVESD)/LVEDD)*100. Minimally efficacious exposure (MEE) was defined as the exposure at which a 10% increase in % FS from baseline was observed. The MEE was derived by plotting assayed exposures against % FS and using non-linear curve fitting (log(exposure) vs. % FS; variable slope, 4 parameters). Response to vehicle at each time point was averaged and all test article responses were normalized to baseline and subtracted from time matched (averaged) vehicle responses.

The test system of experiment [3] is Male CD rats. In words: Pressure-volume loop (PV Loop) protocol (invasive hemodynamics): ejection fraction (% EF) during intravenous infusion, MEE. The note with it: exposure at 10% increase in % EF from baseline, rat, formulation 40% HPbCD, corrected for rat plasma protein binding. More on the design: unit not given here. Format: in vivo. As for the experimental part: as §1, §2, §3
Pressure-volume loop (PV Loop) protocol (invasive hemodynamics): Left ventricular catheterization with a pressure-volume transducing catheter was applied as an alternative method to derive pharmacodynamic endpoints. A pressure volume conductance catheter was inserted via the left carotid artery and advanced into the left ventricle. The electrical signal emitted from the volume catheter was used to derive measures of relative volume at 5 min intervals. From these measures, left ventricular end diastolic volume (LVEDV) and left ventricular end systolic volume (LVESV) were derived. Ejection fraction was then derived using the following formula: % EF=((LVEDV−LVESV)/LVEDV)*100. Minimally efficacious exposure (MEE) was defined as the exposure at which a 10% increase in % EF from baseline was observed. The MEE was derived by plotting assayed exposures against % EF and using non-linear curve fitting (log(exposure) vs. % EF; variable slope, 4 parameters). Response to vehicle at each time point was averaged and all test article responses were normalized to baseline and subtracted from time matched (averaged) vehicle responses. Animal preparation, vehicle/test article delivery and blood sampling for exposure determination was as described in Echocardiography/ultrasound protocol.

[4] abbreviates: Echocardiography, exposure at 10% increase in % FS from baseline.

In the case of `CS(=O)(=O)c1cncc(C(=O)N2[C@@H](C(=O)N[C@@H](c3cc(F)c(C(F)(F)F)cc3F)C3CC3)C[C@H]3C[C@H]32)c1` [Example 214, (1R,3R,5R)—N—((R)-cyclopropyl(2,5-difluoro-4-(trifluoromethyl)phenyl)methyl)-2-(5-(methylsulfonyl)nicotinoyl)-2-azabicyclo[3.1.0]hexane-3-carboxamide], in experiment [1], the AC1.4 is 0.4665 µM. Besides, the “MEE* (unbound), minimally efficacious exposure” value (“MEE* (unbound)” below) in the experiment on Male CD rats [2] (setting [4]) is 0.12.
For `CS(=O)(=O)c1cc(C(=O)N2[C@@H](C(=O)N[C@@H](c3cc(F)c(C(F)(F)F)cc3F)C3CC3)C[C@H]3C[C@H]32)ccn1` [Example 279, (1R,3R,5R)—N—((R)-cyclopropyl(2,5-difluoro-4-(trifluoromethyl)phenyl)methyl)-2-(2-(methylsulfonyl)isonicotinoyl)-2-azabicyclo[3.1.0]hexane-3-carboxamide], in that order: 0.7092 µM and 0.68.
For `CS(=O)(=O)c1cc(C(=O)N2[C@@H](C(=O)N[C@@H](c3cc(F)c(Cl)cc3F)C3CC3)C[C@H]3C[C@H]32)ccn1` [Example 314, (1R,3R,5R)—N—((R)-(4-chloro-2,5-difluorophenyl)(cyclopropyl)methyl)-2-(2-(methylsulfonyl)isonicotinoyl)-2-azabicyclo[3.1.0]hexane-3-carboxamide], in that order: 0.846 µM and 0.16.
In turn, `CS(=O)(=O)c1cccc(C(=O)N2CCC[C@@H]2C(=O)N[C@@H](c2ccc(C(F)(F)F)cc2F)C2CC2)c1` [Example 364, (R)—N—((R)-cyclopropyl(2-fluoro-4-(trifluoromethyl)phenyl)methyl)-1-(3-(methylsulfonyl)benzoyl)pyrrolidine-2-carboxamide] returned an AC1.4 in experiment [1] of 1.04 µM. For the same compound, the “MEE* (unbound)” value in the experiment with Male CD rats [2] (Echocardiography and PV Loop (both protocols named for this value)) was determined as 0.27.
As to `CS(=O)(=O)c1cccc(C(=O)N2C[C@@H](F)C[C@@H]2C(=O)N[C@@H](c2ccc(C(F)(F)F)cc2F)C2CC2)c1` [Example 402, (2R,4S)—N—((R)-cyclopropyl(2-fluoro-4-(trifluoromethyl)phenyl)methyl)-4-fluoro-1-(3-(methylsulfonyl)benzoyl)pyrrolidine-2-carboxamide], the AC1.4 in experiment [1] amounted to 1.381 µM. Also, the “MEE* (unbound)” value in the experiment on Male CD rats [3] turned out to be 0.18.
